Tests used:
[1] = Stability study at 25° C./60% RH, 40° C./75% RH and 60° C. (XRPD, HPLC purity, impurity tracking); settings: for XRPD: * = crystalline salt; for HPLC: based on free acid
Source text: Stability of HBI-3808 Sodium Salt Pattern 2 was studied over 13 weeks.
Table 2F presents impurity tracking results from a 13-week stability study of HBI-3808 sodium salt of Pattern 2. […]

[2] = Dynamic vapor sorption (DVS) analysis; format: physicochemical
Method: GC analysis indicated residual solvent contents of 2847 ppm methanol; and 27 ppm TBME. […] No residual methanol or TBME was detected due to signal over-lap. […] TG-DSC analysis indicated two weight losses. The first weight loss of 2.3 wt. % was observed between 20-170° C. […] In the DSC thermogram, three endothermic events were observed (FIG. 17I). […] FT-IR (FIG. 17J) and Raman spectra (FIG. 17K) were recorded for reference. […] XRPD pattern of the ethanolamine salt was retained post-DVS (FIG. 17N). […] However, at the end of the experiment the solids on the microscope slide had discolored (FIG. 17O).

[3] = Salt disproportionation study (slurry in water, XRPD of solids, pH of mother liquor); format: physicochemical
Method: The pH of the filtered mother liquor was 9.77.
Salt disproportionation studies of ethanolamine salt. […] The pH of the filtered mother liquor was 8.65.
Method: 40 mg of sodium salt of HBI-3808 having a XRPD of Pattern 2, was weighed into a 2 mL push cap vial and a stirrer bar added. 0.2 mL of water was added to the vial and the experiment was stirred for ca. 24 h at 25° C. After 24 h the slurry was filtered by centrifuge filtration and the recovered solids were analyzed by XRPD. The pH of the filtered mother liquor was measured.

[4] = Hydration study in methanol/water aw 0.1, 0.5 and 0.9; format: physicochemical
Source text: Hydration studies of ethanolamine salt.

[5] = Varying humidity (VH)-XRPD; format: physicochemical; settings: 0-90% RH
Method: During the sorption phase, sodium salt Pattern 2 was observed between 40-60% RH. […] A mixture of sodium salt Pattern 2 and 5 was also observed at 80% RH. […] During the second desorption, from 90% RH to 40% RH, sodium salt Pattern 5 was maintained.
VH-XRPD analysis was carried out between 40-0% RH (FIG. 5L).

**Q.** Which “RRT 0.801 impurity” value ([1]; 40° C./75% RH, 1 week) does the source give for `C[C@@H]1CC[C@]2(C(=O)O)CC[C@]3(C)C(=CC[C@@H]4[C@@]5(C)C[C@@H](O)[C@H](O)[C@@](C)(CO)[C@@H]5CC[C@]43C)[C@@H]2[C@]1(C)O.NCCO` [ethanolamine salt of HBI-3808, ETHANOLAMINE SALT OF 23-HYDROXYTORMENTIC ACID] here?
**A.** 0.10 % area

**Q.** What about the “RRT 0.970 impurity” value ([1]; 40° C./75% RH, 1 week) of the same compound?
**A.** 0.14 % area

**Q.** What about the “RRT 1.000 (HBI-3808)” value ([1]; 40° C./75% RH, 1 week) of the same compound?
**A.** 97.28 % area

**Q.** And the “RRT 1.025 (Isomer of HBI-3808)” value ([1]; 40° C./75% RH, 1 week)?
**A.** 2.48 % area

**Q.** And the “Total Impurities” value ([1]; 40° C./75% RH, 1 week)?
**A.** 2.72 % area

**Q.** And the “RRT 0.970 impurity” value ([1]; 40° C./75% RH, 2 weeks)?
**A.** 0.12 % area

**Q.** What about the “RRT 1.000 (HBI-3808)” value ([1]; 40° C./75% RH, 2 weeks) of the same compound?
**A.** 97.26 % area

**Q.** And the “RRT 1.025 (Isomer of HBI-3808)” value ([1]; 40° C./75% RH, 2 weeks)?
**A.** 2.40 % area

**Q.** And the “RRT 1.935 impurity” value ([1]; 40° C./75% RH, 2 weeks)?
**A.** 0.22 % area

**Q.** What about the “Total Impurities” value ([1]; 40° C./75% RH, 2 weeks) of the same compound?
**A.** 2.74 % area

**Q.** And the “RRT 0.970 impurity” value ([1]; 40° C./75% RH, 4 weeks)?
**A.** 0.11 % area

**Q.** What about the “RRT 1.025 (Isomer of HBI-3808)” value ([1]; 40° C./75% RH, 4 weeks) of the same compound?
**A.** 2.41 % area

**Q.** What about the “Total Impurities” value ([1]; 40° C./75% RH, 4 weeks) of the same compound?
**A.** 2.52 % area

**Q.** And the “RRT 0.970 impurity” value ([1]; 40° C./75% RH, 8 weeks)?
**A.** 0.21 % area

**Q.** And the “RRT 1.000 (HBI-3808)” value ([1]; 40° C./75% RH, 8 weeks)?
**A.** 96.88 % area

**Q.** What about the “RRT 1.025 (Isomer of HBI-3808)” value ([1]; 40° C./75% RH, 8 weeks) of the same compound?
**A.** 2.51 % area

**Q.** And the “RRT 1.767 impurity” value ([1]; 40° C./75% RH, 8 weeks)?
**A.** 0.40 % area

**Q.** And the “Total Impurities” value ([1]; 40° C./75% RH, 8 weeks)?
**A.** 3.12 % area

**Q.** And the “RRT 1.000 (HBI-3808)” value ([1]; 40° C./75% RH, 13 weeks)?
**A.** 97.41 % area

**Q.** What about the “RRT 1.025 (Isomer of HBI-3808)” value ([1]; 40° C./75% RH, 13 weeks) of the same compound?
**A.** 2.40 % area

**Q.** And the “RRT 1.935 impurity” value ([1]; 40° C./75% RH, 13 weeks)?
**A.** 0.20 % area

**Q.** What about the “Total Impurities” value ([1]; 40° C./75% RH, 13 weeks) of the same compound?
**A.** 2.59 % area

**Q.** And the “RRT 1.000 (HBI-3808)” value ([1]; 40° C./75% RH, T = 0)?
**A.** 97.82 % area

**Q.** What about the “RRT 1.025 (Isomer of HBI-3808)” value ([1]; 40° C./75% RH, T = 0) of the same compound?
**A.** 2.18 % area

**Q.** What about the “Total Impurities” value ([1]; 40° C./75% RH, T = 0) of the same compound?
**A.** 2.18 % area

**Q.** And the HPLC/ % area ([1]; 60° C. (closed vial), 13 Weeks)?
**A.** 97.4 % area

**Q.** What about the XRPD ([1]; 60° C. (closed vial), 1 Week) of the same compound?
**A.** 1*

**Q.** And the HPLC ([1]; 60° C. (closed vial), 1 Week)?
**A.** 97.5 % area

**Q.** And the XRPD ([1]; 60° C. (closed vial), 2 Weeks)?
**A.** 1*

**Q.** What about the HPLC ([1]; 60° C. (closed vial), 2 Weeks) of the same compound?
**A.** 97.3 % area

**Q.** And the XRPD ([1]; 60° C. (closed vial), 4 Weeks)?
**A.** 1*

**Q.** And the HPLC ([1]; 60° C. (closed vial), 4 Weeks)?
**A.** 97.5 % area

**Q.** What about the XRPD ([1]; 60° C. (closed vial), 8 Weeks) of the same compound?
**A.** 1*

**Q.** What about the HPLC ([1]; 60° C. (closed vial), 8 Weeks) of the same compound?
**A.** 97.0 % area

**Q.** And the XRPD ([1]; 60° C. (closed vial), 13 Weeks)?
**A.** 1*

**Q.** What about the HPLC ([1]; 60° C. (closed vial), 13 Weeks) of the same compound?
**A.** 97.4 % area

**Q.** And the “RRT 0.801 impurity” value ([1]; 60° C., 1 week)?
**A.** 0.12 % area

**Q.** And the “RRT 1.000 (HBI-3808)” value ([1]; 60° C., 1 week)?
**A.** 97.46 % area

**Q.** And the “RRT 1.025 (Isomer of HBI-3808)” value ([1]; 60° C., 1 week)?
**A.** 2.43 % area

**Q.** What about the “Total Impurities” value ([1]; 60° C., 1 week) of the same compound?
**A.** 2.54 % area

**Q.** What about the “RRT 0.970 impurity” value ([1]; 60° C., 2 weeks) of the same compound?
**A.** 0.12 % area

**Q.** What about the “RRT 1.000 (HBI-3808)” value ([1]; 60° C., 2 weeks) of the same compound?
**A.** 97.27 % area

**Q.** What about the “RRT 1.025 (Isomer of HBI-3808)” value ([1]; 60° C., 2 weeks) of the same compound?
**A.** 2.41 % area

**Q.** And the “RRT 1.935 impurity” value ([1]; 60° C., 2 weeks)?
**A.** 0.20 % area

**Q.** And the “Total Impurities” value ([1]; 60° C., 2 weeks)?
**A.** 2.73 % area

**Q.** What about the “RRT 0.970 impurity” value ([1]; 60° C., 4 weeks) of the same compound?
**A.** 0.11 % area

**Q.** What about the “RRT 1.000 (HBI-3808)” value ([1]; 60° C., 4 weeks) of the same compound?
**A.** 97.49 % area

**Q.** What about the “RRT 1.025 (Isomer of HBI-3808)” value ([1]; 60° C., 4 weeks) of the same compound?
**A.** 2.40 % area

**Q.** And the “Total Impurities” value ([1]; 60° C., 4 weeks)?
**A.** 2.51 % area

**Q.** And the “RRT 0.970 impurity” value ([1]; 60° C., 8 weeks)?
**A.** 0.12 % area

**Q.** What about the “RRT 1.000 (HBI-3808)” value ([1]; 60° C., 8 weeks) of the same compound?
**A.** 97.04 % area

**Q.** And the “RRT 1.025 (Isomer of HBI-3808)” value ([1]; 60° C., 8 weeks)?
**A.** 2.49 % area

**Q.** What about the “RRT 1.767 impurity” value ([1]; 60° C., 8 weeks) of the same compound?
**A.** 0.35 % area

**Q.** What about the “Total Impurities” value ([1]; 60° C., 8 weeks) of the same compound?
**A.** 2.96 % area

**Q.** And the “RRT 1.000 (HBI-3808)” value ([1]; 60° C., 13 weeks)?
**A.** 97.41 % area

**Q.** What about the “RRT 1.025 (Isomer of HBI-3808)” value ([1]; 60° C., 13 weeks) of the same compound?
**A.** 2.41 % area

**Q.** And the “RRT 1.935 impurity” value ([1]; 60° C., 13 weeks)?
**A.** 0.18 % area

**Q.** What about the “Total Impurities” value ([1]; 60° C., 13 weeks) of the same compound?
**A.** 2.59 % area

**Q.** What about the “RRT 1.000 (HBI-3808)” value ([1]; 60° C., T = 0) of the same compound?
**A.** 97.82 % area

**Q.** What about the “RRT 1.025 (Isomer of HBI-3808)” value ([1]; 60° C., T = 0) of the same compound?
**A.** 2.18 % area

**Q.** What about the “Total Impurities” value ([1]; 60° C., T = 0) of the same compound?
**A.** 2.18 % area

**Q.** What about the “input purity by HPLC” value ([1]; input material of the stability study (baseline)) of the same compound?
**A.** 97.5 % area

**Q.** What about the “XRPD of recovered material post-DVS” value [2] of the same compound?
**A.** retained

**Q.** What about the “water (mass) uptake” value ([2]; at 80% RH/25° C. (Pattern 2: second DVS cycle)) of the same compound?
**A.** 3.0 wt. %

**Q.** What about the hygroscopicity ([2]; from water uptake at 80% RH, 25° C.) of the same compound?
**A.** slightly hygroscopic

**Q.** What about the “pH of the filtered mother liquor” value [3] of the same compound?
**A.** 8.65

**Q.** What about the “XRPD of recovered solids” value ([3]; ca. 24 h at 25° C.) of the same compound?
**A.** no salt disproportionation had occurred

**Q.** What about the “XRPD of solids recovered at the end of the experiment” value [4] of the same compound?
**A.** consistent with ethanolamine salt

**Q.** And the “XRPD pattern / form stability over relative humidity” value [5]?
**A.** no changes in XRPD Pattern
